Results on 9 compounds are retold here after ChEMBL document CHEMBL3137667, “[Drug-induced liver injury; fourteenth updated edition of the bibliographic database of liver injuries and related drugs]” (Gastroenterol Clin Biol, 2004).

Data set [1] is described as follows: Highest frequency of moderate liver toxicity observed during clinical trials, expressed as a percentage. [column '% BIOL' in source]. As to conditions: human.
Data set [2] can be described thus: Highest frequency of acute liver toxicity observed during clinical trials, expressed as a percentage. [column '% AIGUE' in source]. As to conditions: human.
For data set [3] the following is noted: human, serum.
The conditions of data set [4]: human, serum. This is another data set of the same source.
The conditions of data set [5]: human.
For data set [6] the following is noted: human. This is another data set of the same source.
For data set [7] the following is noted: human. This is another data set of the same source.
The conditions of data set [8]: human, serum, 4383 h.
For data set [9] the following is noted: human. This is another data set of the same source.
For data set [10] the following is noted: human. The source holds these as a separate data set.
The conditions of data set [11]: human. This is another data set of the same source.
For data set [12] the following is noted: human. This is another data set of the same source.
The conditions of data set [13]: human. This is another data set of the same source.
For data set [14] the following is noted: human. This is another data set of the same source.
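Wherever Hepatotoxicity (association with vascular disease) is given: count of indexed literature references reporting vascular liver injury in humans, e.g. peliosis hepatitis, hepatic veno-occlusive disease or Budd-Chiari syndrome.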
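Wherever Hepatotoxicity (benign tumour) is given: value is a count of indexed literature references citing a benign tumour confirmed by histopathology.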
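Wherever Hepatotoxicity (choleostasis) is given: human cholestatic liver injury, shown by histopathology or by peak ALT or AST elevation over alkaline phosphatase ratio below 2, value counts indexed literature reports.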
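Wherever Hepatotoxicity (chronic liver disease) is given: chronic liver injury confirmed by histopathology or persistently raised serum aminotransferase activity beyond 6 months, value given as the count of indexed literature references.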
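Wherever Hepatotoxicity (cirrhosis) is given: value is a count of indexed literature references reporting cirrhosis confirmed by histopathology.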
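Wherever Hepatotoxicity (cytolytic) is given: human cytolytic liver injury, shown by histopathology or by a ratio above 5 of peak ALT or AST elevation to alkaline phosphatase elevation, value counts indexed references.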
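Wherever Hepatotoxicity (granulomatous hepatitis) is given: value is a count of indexed literature references reporting granulomatous liver disease confirmed by histopathology.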
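Wherever Hepatotoxicity (malignant tumour) is given: malignant tumour confirmed by histopathology, value gives the count of indexed literature references reporting it.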
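Wherever Hepatotoxicity (severe hepatitis) is given: human clinical data: severe hepatitis, meaning potentially life-threatening liver failure or clinically observed cases, the value counts how many indexed literature references report it.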
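Wherever Hepatotoxicity (steatosis) is given: steatosis confirmed by histopathology, value is the count of indexed references.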

Regarding `C[C@@](Cc1ccc(O)c(O)c1)(NN)C(=O)O.O` [CARBIDOPA], the “Hepatotoxicity (moderate)” value in [1] is recorded as 0%; in data set [3], 0. Further, the “Hepatotoxicity (acute)” value in [2] came out at 0%; in data set [4], 1. In addition, in [5], the “Hepatotoxicity (cytolytic)” value is 0. Moreover, the “Hepatotoxicity (choleostasis)” value in [6] was 1. In data set [7], the “Hepatotoxicity (severe hepatitis)” value turned out to be 0. The “Hepatotoxicity (chronic liver disease)” value in [8] turned out to be 0. In data set [9], the “Hepatotoxicity (cirrhosis)” value is 0. In addition, the “Hepatotoxicity (granulomatous hepatitis)” value in data set [10] stood at 0. The “Hepatotoxicity (association with vascular disease)” value in data set [11] came out at 0. Also, in data set [12], the “Hepatotoxicity (steatosis)” value was found to be 1. The “Hepatotoxicity (malignant tumour)” value in data set [13] is listed as 0. Also, the “Hepatotoxicity (benign tumour)” value in data set [14] came to 0.

For `Cc1cc(=O)n(-c2ccccc2)n1C` [ANTIPYRINE], the “Hepatotoxicity (moderate)” value was found to be 0% in data set [1] and 0 in data set [3]. In addition, the results for the “Hepatotoxicity (acute)” value in data set [2] and in [4] were 0% and 1, respectively. For the same compound, in data set [5], the “Hepatotoxicity (cytolytic)” value was determined as 0. Moreover, the “Hepatotoxicity (choleostasis)” value in [6] is given as 1. Also, in [7], the “Hepatotoxicity (severe hepatitis)” value was determined as 0. Also, the “Hepatotoxicity (chronic liver disease)” value in [8] was 0. Also, the “Hepatotoxicity (cirrhosis)” value in data set [9] was 0. In data set [10], the “Hepatotoxicity (granulomatous hepatitis)” value turned out to be 0. Also, the “Hepatotoxicity (association with vascular disease)” value in data set [11] amounted to 0. Besides, in data set [12], the “Hepatotoxicity (steatosis)” value worked out at 0. Also, the “Hepatotoxicity (malignant tumour)” value in data set [13] is reported as 0. For the same compound, the “Hepatotoxicity (benign tumour)” value in data set [14] is reported as 0.

In the case of NYSTATIN, the “Hepatotoxicity (moderate)” value is 33.3% in [1] and 3 in data set [3]. The “Hepatotoxicity (acute)” value in data set [2] came to 0%; in data set [4], 1. The “Hepatotoxicity (cytolytic)” value in data set [5] worked out at 1. Moreover, the “Hepatotoxicity (choleostasis)” value in data set [6] was 0. Besides, the “Hepatotoxicity (severe hepatitis)” value in [7] was found to be 0. Also, in [8], the “Hepatotoxicity (chronic liver disease)” value is recorded as 0. For the same compound, the “Hepatotoxicity (cirrhosis)” value in [9] is reported as 0. Also, the “Hepatotoxicity (granulomatous hepatitis)” value in data set [10] is 0. Also, the “Hepatotoxicity (association with vascular disease)” value in data set [11] is recorded as 0. The “Hepatotoxicity (steatosis)” value in data set [12] was 0. The “Hepatotoxicity (malignant tumour)” value in [13] stood at 0. For the same compound, the “Hepatotoxicity (benign tumour)” value in data set [14] stood at 0.

As for `C[C@H]1C[C@H]2[C@@H]3CCC4=CC(=O)C=C[C@]4(C)[C@@]3(Cl)[C@@H](O)C[C@]2(C)[C@@]1(O)C(=O)CO` [BECLOMETHASONE], the entries for the “Hepatotoxicity (moderate)” value in [1] and in [3] were 11.6% and 1, respectively. Besides, the “Hepatotoxicity (acute)” value in [2] turned out to be 0%; in data set [4], 0. Besides, in data set [5], the “Hepatotoxicity (cytolytic)” value is 0. Also, the “Hepatotoxicity (choleostasis)” value in [6] was 0. For the same compound, in data set [7], the “Hepatotoxicity (severe hepatitis)” value is 0. In addition, the “Hepatotoxicity (chronic liver disease)” value in data set [8] came out at 0. Also, the “Hepatotoxicity (cirrhosis)” value in [9] worked out at 0. The “Hepatotoxicity (granulomatous hepatitis)” value in [10] is reported as 0. In addition, the “Hepatotoxicity (association with vascular disease)” value in data set [11] is on record as 0. Besides, the “Hepatotoxicity (steatosis)” value in data set [12] is recorded as 0. Besides, the “Hepatotoxicity (malignant tumour)” value in data set [13] is listed as 0. Further, the “Hepatotoxicity (benign tumour)” value in data set [14] is on record as 0.

For the compound `Cc1cc2c(C(C)C)c(O)c(O)c(C=O)c2c(O)c1-c1c(C)cc2c(C(C)C)c(O)c(O)c(C=O)c2c1O` [GOSSYPOL], the “Hepatotoxicity (moderate)” value in data set [1] turned out to be 93%; in data set [3] it was 1. Further, the “Hepatotoxicity (acute)” value stood at 0% in data set [2] and 0 in data set [4]. Besides, in data set [5], the “Hepatotoxicity (cytolytic)” value is listed as 0. Moreover, the “Hepatotoxicity (choleostasis)” value in [6] is on record as 0. Further, the “Hepatotoxicity (severe hepatitis)” value in [7] is listed as 0. In addition, in [8], the “Hepatotoxicity (chronic liver disease)” value is given as 0. The “Hepatotoxicity (cirrhosis)” value in data set [9] was 0. Moreover, the “Hepatotoxicity (granulomatous hepatitis)” value in data set [10] is on record as 0. For the same compound, the “Hepatotoxicity (association with vascular disease)” value in [11] is reported as 0. In data set [12], the “Hepatotoxicity (steatosis)” value came out at 0. The “Hepatotoxicity (malignant tumour)” value in data set [13] is given as 0. Besides, in [14], the “Hepatotoxicity (benign tumour)” value is 0.

On to `CC(C)(CNC(N)=O)NCC(O)COC(=O)c1ccccc1F` (stereo unspecified) [FLESTOLOL], for which the “Hepatotoxicity (moderate)” value amounted to 6.7% in data set [1] and 2 in data set [3]. For the same compound, the “Hepatotoxicity (acute)” value was determined as 0% in data set [2] and 0 in [4]. In addition, the “Hepatotoxicity (cytolytic)” value in data set [5] is recorded as 0. Besides, the “Hepatotoxicity (choleostasis)” value in data set [6] came to 0. For the same compound, in data set [7], the “Hepatotoxicity (severe hepatitis)” value stood at 0. The “Hepatotoxicity (chronic liver disease)” value in data set [8] is 0. In data set [9], the “Hepatotoxicity (cirrhosis)” value is 0. Besides, in [10], the “Hepatotoxicity (granulomatous hepatitis)” value is 0. Further, in data set [11], the “Hepatotoxicity (association with vascular disease)” value is 0. In data set [12], the “Hepatotoxicity (steatosis)” value stood at 0. Further, in data set [13], the “Hepatotoxicity (malignant tumour)” value stood at 0. In [14], the “Hepatotoxicity (benign tumour)” value is 0.

As to `O=C(O[C@@H]1C[C@@H]2C[C@H]3C[C@H](C1)N2CC3=O)c1c[nH]c2ccccc12` [DOLASETRON], the “Hepatotoxicity (moderate)” value was found to be 6.7% in data set [1] and 1 in [3]. In addition, the “Hepatotoxicity (acute)” value in [2] is listed as 0%; in data set [4], 0. The “Hepatotoxicity (cytolytic)” value in data set [5] was found to be 0. In data set [6], the “Hepatotoxicity (choleostasis)” value was determined as 0. Further, in [7], the “Hepatotoxicity (severe hepatitis)” value is listed as 0. Moreover, the “Hepatotoxicity (chronic liver disease)” value in data set [8] was 0. Further, the “Hepatotoxicity (cirrhosis)” value in data set [9] is 0. Also, the “Hepatotoxicity (granulomatous hepatitis)” value in [10] was found to be 0. Also, the “Hepatotoxicity (association with vascular disease)” value in data set [11] is 0. For the same compound, in data set [12], the “Hepatotoxicity (steatosis)” value is 0. In addition, in [13], the “Hepatotoxicity (malignant tumour)” value is 0. For the same compound, the “Hepatotoxicity (benign tumour)” value in data set [14] turned out to be 0.

With `CC(C)Nc1cccnc1N1CCN(C(=O)c2cc3cc(NS(C)(=O)=O)ccc3[nH]2)CC1` [DELAVIRDINE], the “Hepatotoxicity (moderate)” value in data set [1] is recorded as 7.1%; in data set [3] it was 2. The “Hepatotoxicity (acute)” value stood at 0% in [2] and 0 in data set [4]. Further, the “Hepatotoxicity (cytolytic)” value in [5] came out at 0. Also, the “Hepatotoxicity (choleostasis)” value in [6] worked out at 0. For the same compound, the “Hepatotoxicity (severe hepatitis)” value in data set [7] was found to be 0. The “Hepatotoxicity (chronic liver disease)” value in [8] is 0. Also, the “Hepatotoxicity (cirrhosis)” value in data set [9] is on record as 0. The “Hepatotoxicity (granulomatous hepatitis)” value in [10] is 0. The “Hepatotoxicity (association with vascular disease)” value in data set [11] turned out to be 0. Also, the “Hepatotoxicity (steatosis)” value in [12] was determined as 0. Further, the “Hepatotoxicity (malignant tumour)” value in data set [13] was found to be 0. Further, the “Hepatotoxicity (benign tumour)” value in [14] was 0.

With `CCCc1c2oc(C(=O)O)cc(=O)c2cc2c(=O)cc(C(=O)O)n(CC)c12` [NEDOCROMIL], the “Hepatotoxicity (moderate)” value is listed as 3.3% in [1] and 2 in data set [3]. Besides, the “Hepatotoxicity (acute)” value in [2] is recorded as 0%; in data set [4], 0. Also, in data set [5], the “Hepatotoxicity (cytolytic)” value was 0. In addition, the “Hepatotoxicity (choleostasis)” value in data set [6] was 0. Further, in data set [7], the “Hepatotoxicity (severe hepatitis)” value came to 0. In addition, in data set [8], the “Hepatotoxicity (chronic liver disease)” value came to 0. For the same compound, the “Hepatotoxicity (cirrhosis)” value in [9] is given as 0. Further, the “Hepatotoxicity (granulomatous hepatitis)” value in data set [10] was 0. For the same compound, the “Hepatotoxicity (association with vascular disease)” value in [11] turned out to be 0. In addition, in [12], the “Hepatotoxicity (steatosis)” value stood at 0. The “Hepatotoxicity (malignant tumour)” value in data set [13] stood at 0. The “Hepatotoxicity (benign tumour)” value in [14] turned out to be 0.
